Test results reported in ChEMBL document CHEMBL1201862, “PubChem BioAssay data set” (2004).
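Each compound was tested at five concentrations against cells in 96-well plates for 48 hours. GI50 is the concentration that inhibits growth by half.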 Active and inactive are the calls of the source. Cut-off read from the data, not from the text of the source: active = GI50 up to about 1.1 µM and inactive = higher.

Experiments:
Assay in all cases: growth of human tumour cells (NCI), 48 h
SK-OV-3 = test system: SK-OV-3
RXF 393 = test system: RXF 393
SNB-75 = test system: SNB-75
NCI-H460 = test system: NCI-H460
U-251 = test system: U-251
Malme-3M = test system: Malme-3M
TK-10 = test system: TK-10
SK-MEL-5 = test system: SK-MEL-5
COLO 205 = test system: COLO 205
K562 = test system: K562
CAKI-1 = test system: CAKI-1
OVCAR-8 = test system: OVCAR-8
OVCAR-4 = test system: OVCAR-4
SNB-19 = test system: SNB-19
CCRF-CEM = test system: CCRF-CEM
UO-31 = test system: UO-31
HCC 2998 = test system: HCC 2998

Measured: GI50

COC(=O)c1cc(OC(C)=O)c2c(OC)ccc(OC)c2c1
inactive: SK-OV-3 > 100 µM | RXF 393 > 100 µM | SNB-75 39.5 µM | NCI-H460 > 100 µM | U-251 > 100 µM | Malme-3M > 100 µM | TK-10 > 100 µM | SK-MEL-5 > 100 µM | COLO 205 > 100 µM | K562 > 100 µM | CAKI-1 > 100 µM | OVCAR-8 > 100 µM | OVCAR-4 > 100 µM

CC(=O)NNc1nc(C)c(C(/C=C/c2ccc(Cl)cc2)=N/NC(=S)NN)s1
inactive: SK-OV-3 > 100 µM | RXF 393 > 100 µM | SNB-75 > 100 µM | NCI-H460 > 100 µM | U-251 > 100 µM | Malme-3M > 100 µM | TK-10 > 100 µM | SK-MEL-5 > 100 µM | SNB-19 > 100 µM | COLO 205 > 100 µM | K562 > 100 µM | CAKI-1 > 100 µM | OVCAR-8 > 100 µM | CCRF-CEM > 100 µM | OVCAR-4 > 100 µM | UO-31 > 100 µM

O=C1CCN(CCC(F)(F)C(F)(F)C(F)(F)C(F)(F)F)C(=S)N1
inactive: RXF 393 > 100 µM | SNB-75 > 100 µM | NCI-H460 > 100 µM | U-251 > 100 µM | Malme-3M > 100 µM | TK-10 > 100 µM | SK-MEL-5 > 100 µM | SNB-19 > 100 µM | COLO 205 > 100 µM | K562 > 100 µM | OVCAR-8 > 100 µM | CCRF-CEM > 100 µM | OVCAR-4 > 100 µM | UO-31 > 100 µM

COc1cc(C(=O)O)cc2c1[nH]c1ccccc12 [MUKOEIC ACID]
inactive: SK-OV-3 > 25 µM | HCC 2998 > 25 µM | NCI-H460 > 25 µM | U-251 > 25 µM | Malme-3M > 25 µM | TK-10 > 25 µM | SK-MEL-5 > 25 µM | SNB-19 > 25 µM | COLO 205 > 25 µM | K562 > 25 µM | OVCAR-8 > 25 µM | CCRF-CEM > 25 µM | OVCAR-4 > 25 µM | UO-31 > 25 µM

Cc1ccc(C2=C(c3ccccc3)C(=O)C(c3ccccc3)=C2c2ccc(C)cc2)cc1
inactive: SK-OV-3 > 100 µM | HCC 2998 > 100 µM | RXF 393 26.4 µM | SNB-75 87.3 µM | NCI-H460 36.1 µM | U-251 25.1 µM | Malme-3M 31 µM | TK-10 45.6 µM | SK-MEL-5 55.1 µM | SNB-19 54.3 µM | K562 22.1 µM | OVCAR-8 73.6 µM | CCRF-CEM 17.2 µM | UO-31 > 100 µM

CC(Oc1ccc(OCC2CCCCC2)cc1)C(=O)NCCO (stereo unspecified)
inactive: SK-OV-3 > 100 µM | RXF 393 > 100 µM | SNB-75 > 100 µM | NCI-H460 52.1 µM | U-251 > 100 µM | Malme-3M > 100 µM | TK-10 > 100 µM | SK-MEL-5 > 100 µM | SNB-19 > 100 µM | K562 > 100 µM | OVCAR-8 > 100 µM | CCRF-CEM > 100 µM | OVCAR-4 > 100 µM | UO-31 56.4 µM

Cn1c2c(c3ccccc31)CCN(CCCN1CCN(c3cccc(Cl)c3)CC1)C2=O
inactive: SK-OV-3 38.5 µM | RXF 393 14.9 µM | NCI-H460 5.81 µM | U-251 3.27 µM | TK-10 27.8 µM | SK-MEL-5 15.1 µM | SNB-19 27.4 µM | COLO 205 15.1 µM | K562 14.8 µM | CAKI-1 20.8 µM | OVCAR-8 23.7 µM | CCRF-CEM 31.5 µM | UO-31 11 µM

CCOC(=O)Cn1c(=O)n(C)c(=O)c2c1ncn2Cc1ccccc1
inactive: SK-OV-3 > 100 µM | SNB-75 > 100 µM | NCI-H460 > 100 µM | U-251 > 100 µM | Malme-3M > 100 µM | TK-10 > 100 µM | SK-MEL-5 > 100 µM | SNB-19 > 100 µM | COLO 205 > 100 µM | K562 > 100 µM | CAKI-1 > 100 µM | OVCAR-8 > 100 µM | CCRF-CEM > 100 µM | UO-31 > 100 µM

O=c1c2cccc3cccc(c4n1CCCN=4)c32
inactive: SK-OV-3 > 100 µM | RXF 393 > 100 µM | SNB-75 > 100 µM | NCI-H460 > 100 µM | U-251 > 100 µM | Malme-3M > 100 µM | TK-10 47.5 µM | SK-MEL-5 > 100 µM | COLO 205 > 100 µM | K562 > 100 µM | CAKI-1 > 100 µM | OVCAR-8 > 100 µM | CCRF-CEM 41.6 µM | OVCAR-4 > 100 µM | UO-31 80.4 µM

O=C(CCc1n[nH]c(=S)o1)Nc1ccccc1C(F)(F)F
inactive: SK-OV-3 > 100 µM | HCC 2998 > 100 µM | SNB-75 > 100 µM | NCI-H460 > 100 µM | U-251 > 100 µM | Malme-3M > 100 µM | TK-10 > 100 µM | SK-MEL-5 > 100 µM | SNB-19 > 100 µM | COLO 205 57.4 µM | K562 66.7 µM | CAKI-1 > 100 µM | OVCAR-8 > 100 µM | CCRF-CEM > 100 µM | OVCAR-4 > 100 µM | UO-31 > 100 µM

CC(=O)C1=CSC2[C@H](NC(=O)Cc3ccccc3)C(=O)N2C1C(=O)OC(c1ccccc1)c1ccccc1 (stereo partly specified)
inactive: SK-OV-3 > 100 µM | HCC 2998 > 100 µM | SNB-75 56.2 µM | Malme-3M > 100 µM | TK-10 > 100 µM | SK-MEL-5 65.6 µM | SNB-19 > 100 µM | COLO 205 > 100 µM | K562 > 100 µM | CAKI-1 59 µM | OVCAR-8 > 100 µM | CCRF-CEM 23.1 µM | OVCAR-4 > 100 µM | UO-31 > 100 µM

CCOC(=O)NC(=O)c1cn(CCN2CCN(C(=O)CCCCCCCCCCNc3ncnc4c3ncn4C3OC(CO)C(O)C3O)CC2)c(=O)[nH]c1=O (stereo unspecified)
inactive: SK-OV-3 > 100 µM | HCC 2998 > 100 µM | SNB-75 > 100 µM | NCI-H460 > 100 µM | U-251 > 100 µM | Malme-3M > 100 µM | TK-10 > 100 µM | SK-MEL-5 > 100 µM | SNB-19 > 100 µM | COLO 205 > 100 µM | K562 > 100 µM | CAKI-1 > 100 µM | OVCAR-8 > 100 µM | CCRF-CEM > 100 µM | UO-31 > 100 µM

CC1OC(=O)N(CCCC=C2SCCCS2)C1=O (stereo unspecified)
inactive: SK-OV-3 > 100 µM | RXF 393 > 100 µM | SNB-75 > 100 µM | NCI-H460 > 100 µM | U-251 > 100 µM | Malme-3M > 100 µM | TK-10 > 100 µM | SNB-19 > 100 µM | COLO 205 > 100 µM | K562 > 100 µM | OVCAR-8 > 100 µM | CCRF-CEM > 100 µM | OVCAR-4 > 100 µM | UO-31 > 100 µM
